Results from patent publication US20230295157A1, “3-(1H-IMIDAZOL-2-YL)-2,3,8,8A-TETRAHYDROINDOLIZIN-5(1H)-ONE DERIVATIVES USEFUL AS FACTOR XIA INHIBITORS” (JANSSEN PHARMACEUTICA NV, priority 2020, published 2023).
pIC50: −log10 of the molar value. Read-outs that look alike come from different tables or passages of the source.

Legend:
human plasma kallikrein = human plasma kallikrein (Homo sapiens (Human), UniProt P03952); assay: Kallikrein inhibition assay (FLINT) utilizing a quenched AMC peptide substrate; assay type: biochemical; conditions: 30 min preincubation, read-out: Kallikrein Kin Inh IC50; for pIC50: kinetic reads over 30 min, Z-Gly-Pro-Arg-AMC substrate 50 μM; for IC50: μM, kinetic reads
Sequence of human plasma kallikrein (P03952 391-638): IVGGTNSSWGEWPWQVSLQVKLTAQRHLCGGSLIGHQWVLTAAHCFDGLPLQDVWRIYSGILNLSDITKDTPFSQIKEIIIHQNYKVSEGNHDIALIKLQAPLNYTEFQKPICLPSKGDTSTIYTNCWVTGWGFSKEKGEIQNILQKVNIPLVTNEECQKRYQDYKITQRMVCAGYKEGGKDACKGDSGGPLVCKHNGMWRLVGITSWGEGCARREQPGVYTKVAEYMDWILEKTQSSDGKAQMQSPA
Sequence of human plasma kallikrein (P03952 20-390 partner): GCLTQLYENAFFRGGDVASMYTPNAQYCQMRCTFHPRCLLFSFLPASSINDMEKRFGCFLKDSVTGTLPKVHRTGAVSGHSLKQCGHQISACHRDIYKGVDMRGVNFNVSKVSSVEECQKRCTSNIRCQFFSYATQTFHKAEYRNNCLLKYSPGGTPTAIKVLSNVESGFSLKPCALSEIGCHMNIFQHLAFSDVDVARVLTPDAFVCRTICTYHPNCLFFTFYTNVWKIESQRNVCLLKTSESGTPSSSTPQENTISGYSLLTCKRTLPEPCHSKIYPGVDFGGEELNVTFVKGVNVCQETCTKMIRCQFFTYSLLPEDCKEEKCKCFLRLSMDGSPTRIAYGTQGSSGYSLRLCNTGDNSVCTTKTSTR
Procedure, shortened: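 Enzyme (2 nM final) pre-incubated 30 min at room temperature with compound (11-point, 3-fold, top 1 μM, 2% DMSO), then 50 μM Z-Gly-Pro-Arg-AMC added in Tris pH 7.5 buffer. Kinetic fluorescence 340/440 nm every 5 min over 30 min; IC50 from 4-parameter logistic fit.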

Factor XIa = Factor XIa (Homo sapiens (Human), UniProt P03951); assay: Factor XIa inhibition assay (FLINT) utilizing a fluorophore-quencher pair peptide substrate; assay type: biochemical; conditions: 30 min preincubation, kinetic reads over 30 min, read-out: FXIa Kin Inh IC50
Sequence of Factor XIa (P03951 388-625): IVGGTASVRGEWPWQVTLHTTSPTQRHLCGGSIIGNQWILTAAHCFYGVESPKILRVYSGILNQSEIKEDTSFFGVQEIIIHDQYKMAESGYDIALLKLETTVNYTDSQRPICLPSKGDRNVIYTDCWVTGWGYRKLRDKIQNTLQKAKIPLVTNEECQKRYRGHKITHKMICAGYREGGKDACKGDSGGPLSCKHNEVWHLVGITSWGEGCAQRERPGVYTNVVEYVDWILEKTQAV
Sequence of Factor XIa (P03951 19-387 partner): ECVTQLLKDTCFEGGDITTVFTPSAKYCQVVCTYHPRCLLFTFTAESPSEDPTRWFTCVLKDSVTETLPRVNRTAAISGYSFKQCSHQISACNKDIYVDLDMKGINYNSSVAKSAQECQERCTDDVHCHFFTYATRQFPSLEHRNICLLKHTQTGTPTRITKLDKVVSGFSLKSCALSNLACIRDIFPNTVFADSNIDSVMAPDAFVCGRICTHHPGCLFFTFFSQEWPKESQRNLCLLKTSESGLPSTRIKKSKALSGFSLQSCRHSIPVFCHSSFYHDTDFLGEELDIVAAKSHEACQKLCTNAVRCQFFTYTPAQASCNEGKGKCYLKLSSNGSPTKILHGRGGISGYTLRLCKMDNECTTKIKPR
Procedure, shortened: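 FXIa ([…]) preincubated 30 min with compound (11-point 3-fold dilution, top 100 nM, 2% DMSO), then 15 μM quenched FXI Arg146-based peptide added; Tris pH 7.5, CaCl2, BSA, CHAPS. Fluorescence 485/520 nm read kinetically every 5 min over 30 min at RT; IC50 by 4-parameter fit.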

[1] = 5Fam-KLTRAETV-K5Tamra substrate 15 μM
[2] = 5Fam-[…]-K5Tamra substrate 15 μM

pIC50 (human plasma kallikrein)	pIC50 (Factor XIa; [1])	pIC50 (Factor XIa; [2])	IC50 (human plasma kallikrein) [µM]	Structure (SMILES)
7.45	8.32			O=C1C=C(c2c(-n3cnnn3)ccc(Cl)c2F)C[C@H]2CC[C@H](c3nc(F)c(-c4ccnc(C5(O)CC5)c4F)[nH]3)N12 (single isomer, unassigned) [Example 109]
6.96		7.92		Nc1ccc(-c2cnc([C@@H]3CC[C@@H]4C(=O)N(c5cc(Cl)ccc5-n5cnnn5)CC(=O)N43)[nH]2)c(F)n1 (single isomer, unassigned) [Example 360, (6S*,8aR*)-6-(5-(6-amino-2-fluoropyridin-3-yl)-1H-imidazol-2-yl)-2-(5-chloro-2-(1H-tetrazol-1-yl)phenyl)hexahydropyrrolo[1,2-a]pyrazine-1,4-dione]
8.13	9.15			CNc1ccc(-c2cnc([C@@H]3CCC4CC(c5c(-n6cnnn6)ccc(Cl)c5F)=CC(=O)N43)[nH]2)c(F)n1 (stereo partly drawn) [Example 368, (3S)-7-(3-chloro-2-fluoro-6-(1H-tetrazol-1-yl)phenyl)-3-(5-(2-fluoro-6-(methylamino)pyridin-3-yl)-1H-imidazol-2-yl)-2,3,8,8a-tetrahydroindolizin-5(1H)-one]
7.85	9.40			O=C(O)c1nccc(-c2cnc([C@@H]3CC[C@@H]4CC(c5c(-n6cnnn6)ccc(Cl)c5F)=CC(=O)N43)[nH]2)c1F [Example 182, 4-(2-((3S,8aR)-7-(3-chloro-2-fluoro-6-(1H-tetrazol-1-yl)phenyl)-5-oxo-1,2,3,5,8,8a-hexahydroindolizin-3-yl)-1H-imidazol-5-yl)-3-fluoropicolinic acid]
7.56	7.71			NC(=O)c1sc(-c2c[nH]c([C@@H]3CC[C@@H]4CC(c5c(-n6cnnn6)ccc(Cl)c5F)=CC(=O)N43)n2)cc1F [Example 216, 5-(2-((3S,8aR)-7-(3-Chloro-2-fluoro-6-(1H-tetrazol-1-yl)phenyl)-5-oxo-1,2,3,5,8,8a-hexahydroindolizin-3-yl)-1H-imidazol-4-yl)-3-fluorothiophene-2-carboxamide]
8.92	9.52			Nc1cc(-c2[nH]c([C@@H]3CC[C@@H]4CC(c5c(-n6cnnn6)ccc(Cl)c5F)=CC(=O)N43)nc2Cl)ccn1 [Example 372, (3S,8aR)-3-(5-(2-aminopyridin-4-yl)-4-chloro-1H-imidazol-2-yl)-7-(3-chloro-2-fluoro-6-(1H-tetrazol-1-yl)phenyl)-2,3,8,8a-tetrahydroindolizin-5(1H)-one]
8.62	9.05			O=C(Nc1ccccc1-c1c[nH]c([C@@H]2CCC3CC(c4c(-n5cnnn5)ccc(Cl)c4F)=CC(=O)N32)n1)C1CCCC1 (stereo partly shown) [Example 330]
6.51	7.24			CC(O)COc1nccc(-c2cnc([C@@H]3CC[C@H]4CC(c5c(-n6cnnn6)ccc(Cl)c5F)=CC(=O)N43)[nH]2)c1F (single isomer, unassigned) [Example 29]
9.15	9.52			O=C1CCc2cc(-c3cnc([C@@H]4CCC5CC(c6c(-n7cnnn7)ccc(Cl)c6F)=CC(=O)N54)[nH]3)ccc2N1 (stereo partly drawn) [Example 311, 6-(2-((3S)-7-(3-Chloro-2-fluoro-6-(1H-tetrazol-1-yl)phenyl)-5-oxo-1,2,3,5,8,8a-hexahydroindolizin-3-yl)-1H-imidazol-5-yl)-3,4-dihydroquinolin-2(1H)-one]
8.36	8.42			O=C1C=C(c2c(-n3cnnn3)ccc(Cl)c2F)C[C@H]2CC[C@@H](c3nc(-c4cccc5[nH]ncc45)c[nH]3)N12 [Example 51, (3S,8aR)-3-(4-(1H-indazol-4-yl)-1H-imidazol-2-yl)-7-(3-chloro-2-fluoro-6-(1H-tetrazol-1-yl)phenyl)-2,3,8,8a-tetrahydroindolizin-5(1H)-one]
8.13	8.24			CC(C)(CO)Nc1nccc(-c2cnc([C@@H]3CC[C@@H]4CC(c5c(-n6cnnn6)ccc(Cl)c5F)=CC(=O)N43)[nH]2)c1F [Example 89, (3S,8aR)-7-[3-chloro-2-fluoro-6-(tetrazol-1-yl)phenyl]-3-[5-[3-fluoro-2-[(2-hydroxy-1,1-dimethyl-ethyl)amino]-4-pyridyl]-1H-imidazol-2-yl]-2,3,8,8a-tetrahydro-1H-indolizin-5-one]
8.24		8.54		O=C1C=C(c2c(-n3cnnn3)ccc(Cl)c2F)C[C@H]2CC[C@@H](c3ncc(-c4ccnc(N5CC6(COC6)C5)c4F)[nH]3)N12 (single isomer, unassigned) [Example 108, (3S*,8aR)-7-(3-chloro-2-fluoro-6-(1H-tetrazol-1-yl)phenyl)-3-(5-(3-fluoro-2-(2-oxa-6-azaspiro[3.3]heptan-6-yl)pyridin-4-yl)-1H-imidazol-2-yl)-2,3,8,8a-tetrahydroindolizin-5(1H)-one]
7.78		8.74		[2H]C([2H])(O)c1nccc(-c2cnc([C@@H]3CCC4CC(c5c(-n6cnnn6)ccc(Cl)c5F)=CC(=O)N43)[nH]2)c1Cl (stereo partly drawn) [Example 189, (3S)-3-(5-(3-chloro-2-(hydroxymethyl-d2)pyridin-4-yl)-1H-imidazol-2-yl)-7-(3-chloro-2-fluoro-6-(1H-tetrazol-1-yl)phenyl)-2,3,8,8a-tetrahydroindolizin-5(1H)-one]
6.42	~7.52			CNC(=O)c1ccccc1-c1cnc([C@@H]2CCC3CC(c4c(-n5cnnn5)ccc(Cl)c4F)=CC(=O)N32)[nH]1 (stereo partly drawn) [Example 287, 2-(2-((3S)-7-(3-chloro-2-fluoro-6-(1H-tetrazol-1-yl)phenyl)-5-oxo-1,2,3,5,8,8a-hexahydroindolizin-3-yl)-1H-imidazol-5-yl)-N-methylbenzamide]
8.77	9.40			O=C1Nc2ccc(-c3cnc([C@@H]4CC[C@@H]5CC(c6c(-n7cnnn7)ccc(Cl)c6F)=CC(=O)N54)[nH]3)c(F)c2CO1 (single isomer, unassigned) [Example 118, 6-(24(3*S,8a*R)-7-(3-chloro-2-fluoro-6-(1H-tetrazol-1-yl)phenyl)-5-oxo-1,2,3,5,8,8a-hexahydroindolizin-3-yl)-1H-imidazol-5-yl)-5-fluoro-1,4-dihydro-2H-benzo[d][1,3]oxazin-2-one]
6.82	7.78			CCOC(=O)Nc1ncccc1-c1c[nH]c([C@@H]2CC[C@@H]3CC(c4c(-n5cnnn5)ccc(Cl)c4F)=CC(=O)N32)n1 [Example 254, Ethyl N-[3-[2-[(3S,8aR)-7-[3-chloro-2-fluoro-6-(tetrazol-1-yl)phenyl]-5-oxo-2,3,8,8a-tetrahydro-1H-indolizin-3-yl]-1H-imidazol-4-yl]-2-pyridyl]carbamate]
9.15		9.70		O=C(Nc1cnccc1-c1c[nH]c([C@@H]2CC[C@H]3CC(c4c(-n5cnnn5)ccc(Cl)c4F)=CC(=O)N32)n1)C1CC1 (relative stereo) [Example 250, N-(4-(24(3S,8aS*)-7-(3-choro-2-fluoro-6-(1H-tetrazol-1-yl)phenyl)-5-oxo-1,2,3,5,8,8a-hexahydroindolizin-3-yl)-1H-imidazol-4-yl)pyridin-3-yl)cyclopropanecarboxamide]
	< 7.00		> 1	Nc1ccncc1-c1c[nH]c([C@@H]2CCC3CC(c4c(-n5cnnn5)ccc(Cl)c4F)=CC(=O)N32)n1 (stereo partly drawn) [Example 253, (3S)-3-[4-(4-Amino-3-pyridyl)-1H-imidazol-2-yl]-7-[3-chloro-2-fluoro-6-(tetrazol-1-yl)phenyl]-2,3,8,8a-tetrahydro-1H-indolizin-5-one]
8.11	9.30			[2H]c1cc(-c2cnc([C@@H]3CC[C@@H]4CC(c5c(-n6cnnn6)ccc(Cl)c5F)=CC(=O)N43)[nH]2)c(F)nc1N [Example 147, (3S,8aR)-3-[5-(6-amino-5-deuterio-2-fluoro-3-pyridyl)-1H-imidazol-2-yl]-7-[3-chloro-2-fluoro-6-(tetrazol-1-yl)phenyl]-2,3,8,8a-tetrahydro-1H-indolizin-5-one]
7.31	9.15			O=C(O)c1nccc(-c2cnc([C@@H]3CC[C@@H]4CC(c5c(-n6cc(C(F)(F)F)nn6)ccc(Cl)c5F)=CC(=O)N43)[nH]2)c1F [Example 58, 4-(2-((3S,8aR)-7-(3-chloro-2-fluoro-6-(4-(trifluoromethyl)-1H-1,2,3-triazol-1-yl)phenyl)-5-oxo-1,2,3,5,8,8a-hexahydroindolizin-3-yl)-1H-imidazol-5-yl)-3-fluoropicolinic acid]
	6.55		1.1	O=C1C=C(c2c(-n3cnnn3)ccc(Cl)c2F)CC2CC[C@@H](c3nc(-c4ncc[nH]4)c[nH]3)N12 (stereo partly drawn) [Example 333, (3S)-3-(1H,1′H-[2,4′-Biimidazol]-2′-yl)-7-(3-chloro-2-fluoro-6-(1H-tetrazol-1-yl)phenyl)-2,3,8,8a-tetrahydroindolizin-5(1H)-one]
7.95	8.89			O=C1C=C(c2cc(Cl)ccc2-n2cnnn2)C[C@H]2CC[C@@H](c3nc(F)c(-c4ccnc(CO)c4F)[nH]3)N12 [Example 80, (3S,8aR)-7-[5-chloro-2-(tetrazol-1-yl)phenyl]-3-[4-fluoro-5-[3-fluoro-2-(hydroxymethyl)-4-pyridyl]-1H-imidazol-2-yl]-2,3,8,8a-tetrahydro-1H-indolizin-5-one]
8.42	8.89			O=C1C=C(c2c(-n3cnnn3)ccc(Cl)c2F)C[C@H]2CC[C@@H](c3ncc(-c4ccnc5ccsc45)[nH]3)N12 [Example 387, (3S,8aR)-7-(3-chloro-2-fluoro-6-(1H-tetrazol-1-yl)phenyl)-3-(5-(thieno[3,2-b]pyridin-7-yl)-1H-imidazol-2-yl)-2,3,8,8a-tetrahydroindolizin-5(1H)-one]
